Reference: patent publication US9040712B2, “Thiadiazole analogs thereof and methods for treating SMN-deficiency-related-conditions” (NOVARTIS AG, priority 2013, dated 2015)
Structures can show the parent of a compound that is named as a salt.

Test system: SMN protein
Assay: cellular SMN ELISA (SMN protein elevation)
Type: cell-based
Details: myoblast cell line derived from SMNdelta7 mouse model; 24 hours compound treatment; concentration range 100 pM-10 uM
In short: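 Myoblasts derived from the SMNdelta7 mouse model, 3000 cells/well, treated with compound (100 pM–10 uM) for 24 h, then lysed in modified RIPA buffer. SMN protein quantified by sandwich ELISA (anti-SMN mAb capture, rabbit polyclonal detection, HRP/TMB, 450 nm). Results given as fold activation over DMSO and EC50.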

| SMILES | EC50 [nM] | SMN Activity Fold (fold activation over DMSO control) |
| --- | --- | --- |
| CN(c1nnc(-c2cc(F)c(-c3cn[nH]c3)cc2Cl)s1)C1CC(C)(C)NC(C)(C)C1 [Example 54, 5-(2-chloro-5-fluoro-4-(1H-pyrazol-4-yl)phenyl)-N-methyl-N-(2,2,6,6-tetramethylpiperidin-4-yl)-1,3,4-thiadiazol-2-amine] | 47 | 3.16 fold |
| CN(c1nnc(-c2cc3cc(C#N)ccc3s2)s1)C1CC(C)(C)NC(C)(C)C1 [Example 108, 2-(5-(methyl(2,2,6,6-tetramethylpiperidin-4-yl)amino)-1,3,4-thiadiazol-2-yl)benzo[b]thiophene-5-carbonitrile] | 539 | 2.72 fold |
| CN(c1nnc(-c2ccc(-c3ccnc(N)n3)cc2Cl)s1)C1CC(C)(C)NC(C)(C)C1 [Example 56, 5-(4-(2-aminopyrimidin-4-yl)-2-chlorophenyl)-N-methyl-N-(2,2,6,6-tetramethylpiperidin-4-yl)-1,3,4-thiadiazol-2-amine] | 41 | 2.47 fold |
| COc1ccc(-c2ccc(-c3nnc(N(C)C4CC(C)(C)NC(C)(C)C4)s3)c(Cl)c2)cn1 [Example 44, 5-(2-chloro-4-(6-methoxypyridin-3-yl)phenyl)-N-methyl-N-(2,2,6,6-tetramethylpiperidin-4-yl)-1,3,4-thiadiazol-2-amine] | 4920 | 2.26 fold |
| CN(c1nnc(-c2ccc(-c3ccn[nH]3)c(F)c2F)s1)C1CC(C)(C)NC(C)(C)C1 [Example 49, 5-(2,3-difluoro-4-(1H-pyrazol-5-yl)phenyl)-N-methyl-N-(2,2,6,6-tetramethylpiperidin-4-yl)-1,3,4-thiadiazol-2-amine] | 81 | 2.42 fold |
| CN(c1nnc(-c2cc(F)c(-c3cn[nH]c3)cc2F)s1)C1CC(C)(C)NC(C)(C)C1 [Example 50, 5-(2,5-difluoro-4-(1H-pyrazol-4-yl)phenyl)-N-methyl-N-(2,2,6,6-tetramethylpiperidin-4-yl)-1,3,4-thiadiazol-2-amine] | 20 | 3.07 fold |
| CN(c1nnc(-c2ccc(-c3cnn4c3CCCC4)cc2Cl)s1)C1CC(C)(C)NC(C)(C)C1 [Example 41, 5-(2-chloro-4-(4,5,6,7-tetrahydropyrazolo[1,5-a]pyridin-3-yl)phenyl)-N-methyl-N-(2,2,6,6-tetramethylpiperidin-4-yl)-1,3,4-thiadiazol-2-amine] | 507 | 2.44 fold |
| CN(c1nnc(-c2ccc(-c3cnn(C)c3)cc2C(F)(F)F)s1)C1CC(C)(C)NC(C)(C)C1 [Example 14] |  | inactive |
| COc1cc(-c2cn[nH]c2)c(F)c(F)c1-c1nnc(N(C)C2CC(C)(C)NC(C)(C)C2)s1 [Example 63, 5-(2,3-difluoro-6-methoxy-4-(1H-pyrazol-4-yl)phenyl)-N-methyl-N-(2,2,6,6-tetramethyl-piperidin-4-yl)-1,3,4-thiadiazol-2-amine] | 47 | 3.13 fold |
| Oc1ccc2cc(-c3nnc(N4C[C@H]5CNC[C@H]5C4)s3)c(O)cc2c1 [Example 21, 3-(5-((3aR,6aS)-Hexahydropyrrolo[3,4-c]pyrrol-2(1H)-yl)-1,3,4-thiadiazol-2-yl)naphthalene-2,7-diol] | 323 | 2.66 fold |
| CN(c1nnc(-c2ccc(-n3cccn3)cc2Cl)s1)C1CC(C)(C)NC(C)(C)C1 [Example 65, 5-(2-chloro-4-(1H-pyrazol-1-yl)phenyl)-N-methyl-N-(2,2,6,6-tetramethylpiperidin-4-yl)-1,3,4-thiadiazol-2-amine] | 273 | 2.37 fold |
| COc1cc(-n2cccn2)ccc1-c1nnc(CC2CC(C)(C)NC(C)(C)C2)s1 [Example 98, 2-(2-methoxy-4-(1H-pyrazol-1-yl)phenyl)-5-((2,2,6,6-tetramethylpiperidin-4-yl)methyl)-1,3,4-thiadiazole] | 818 | 2.19 fold |
| Cn1cc(-c2ccc(-c3nnc(N4CC5(CCCNC5)C4)s3)c(O)c2)cn1 [Example 94, 2-(5-(2,6-diazaspiro[3.5]nonan-2-yl)-1,3,4-thiadiazol-2-yl)-5-(1-methyl-1H-pyrazol-4-yl)phenol] | 155 | 2.59 fold |
| CN(c1nnc(-c2ccc(-n3ccnn3)cc2Cl)s1)C1CC(C)(C)NC(C)(C)C1 [Example 66, 5-(2-chloro-4-(1H-1,2,3-triazol-1-yl)phenyl)-N-methyl-N-(2,2,6,6-tetramethylpiperidin-4-yl)-1,3,4-thiadiazol-2-amine] | 130 | 2.32 fold |
| CN(c1nnc(-c2ccc(-c3ccn(C)c(=O)c3)cc2Cl)s1)C1CC(C)(C)NC(C)(C)C1 [Example 39, 4-(3-chloro-4-(5-(methyl(2,2,6,6-tetramethyl-piperidin-4-yl)amino)-1,3,4-thiadiazol-2-yl)phenyl)-1-methylpyridin-2(1H)-one] | 50 | 2.31 fold |
| CN(c1nnc(-c2cc(-c3ccnc(N)n3)ccc2Cl)s1)C1CC(C)(C)NC(C)(C)C1 [Example 57, 5-(5-(2-aminopyrimidin-4-yl)-2-chlorophenyl)-N-methyl-N-(2,2,6,6-tetramethylpiperidin-4-yl)-1,3,4-thiadiazol-2-amine] | 94 | 2.55 fold |
| CN(c1nnc(-c2ccc(-c3cnn(C)c3)cc2Cl)s1)C1CC(C)(C)NC(C)(C)C1 [Example 25, 5-(2-Chloro-4-(1-methyl-1H-pyrazol-4-yl)phenyl)-N-methyl-N-(2,2,6,6-tetramethylpiperidin-4-yl)-1,3,4-thiadiazol-2-amine] | 132 | 2.49 fold |
| Oc1cc(-c2cn[nH]c2)cc(F)c1-c1nnc(N2C[C@H]3CNC[C@H]3C2)s1 [Example 96, 3-fluoro-2-(5-((3aR,6aS)-hexahydropyrrolo[3,4-c]pyrrol-2(1H)-yl)-1,3,4-thiadiazol-2-yl)-5-(1H-pyrazol-4-yl)phenol•Di-hydrochloride salt] | 9 | 2.85 fold |
| Fc1cc(-c2nnc(N3C[C@H]4CNC[C@H]4C3)s2)c(F)cc1-c1cn[nH]c1 [Example 53, 2-(2,5-difluoro-4-(1H-pyrazol-4-yl)phenyl)-5-((3aR,6aS)-hexahydropyrrolo[3,4-c]pyrrol-2(1H)-yl)-1,3,4-thiadiazole] | 70 | 2.56 fold |
| CN(c1nnc(-c2ccc(-c3cn[nH]c3)c(F)c2F)s1)C1CC(C)(C)NC(C)(C)C1 [Example 48, 5-(2,3-difluoro-4-(1H-pyrazol-4-yl)phenyl)-N-methyl-N-(2,2,6,6-tetramethylpiperidin-4-yl)-1,3,4-thiadiazol-2-amine] | 33 | 3.04 fold |
| CN(c1nnc(-c2cc(F)c(-c3ccn[nH]3)cc2F)s1)C1CC(C)(C)NC(C)(C)C1 [Example 51, 5-(2,5-difluoro-4-(1H-pyrazol-5-yl)phenyl)-N-methyl-N-(2,2,6,6-tetramethylpiperidin-4-yl)-1,3,4-thiadiazol-2-amine] | 85 | 2.86 fold |
| CN(c1nnc(-c2ccc(-c3ccn[nH]3)cc2F)s1)C1CC(C)(C)NC(C)(C)C1 [Example 47, 5-(2-fluoro-4-(1H-pyrazol-5-yl)phenyl)-N-methyl-N-(2,2,6,6-tetramethylpiperidin-4-yl)-1,3,4-thiadiazol-2-amine] | 152 | 2.29 fold |
| CN(c1nnc(-c2cc3ccccc3n(C)c2=O)s1)C1CC(C)(C)NC(C)(C)C1 [Example 104, 1-methyl-3-(5-(methyl(2,2,6,6-tetramethylpiperidin-4-yl)amino)-1,3,4-thiadiazol-2-yl)quinolin-2(1H)-one] | 100 | 2.76 fold |
| CN(c1nnc(-c2ccc(-n3nccn3)cc2Cl)s1)C1CC(C)(C)NC(C)(C)C1 [Example 67, 5-(2-chloro-4-(2H-1,2,3-triazol-2-yl)phenyl)-N-methyl-N-(2,2,6,6-tetramethylpiperidin-4-yl)-1,3,4-thiadiazol-2-amine] | 159 | 2.45 fold |
| COc1ccc(-c2ccc(-c3nnc(N(C)C4CC(C)(C)NC(C)(C)C4)s3)c(OC)c2)cn1 [Example 78, 5-(2-methoxy-4-(6-methoxypyridin-3-yl)phenyl)-N-methyl-N-(2,2,6,6-tetramethyl-piperidin-4-yl)-1,3,4-thiadiazol-2-amine] | 165 | 2.52 fold |
| CN(c1nnc(-c2ccc(-c3ccn(C)c(=O)c3)cc2OC(F)(F)F)s1)C1CC(C)(C)NC(C)(C)C1 [Example 12, 1-Methyl-4-(4-(5-(methyl(2,2,6,6-tetramethyl-piperidin-4-yl)amino)-1,3,4-thiadiazol-2-yl)-3-(trifluoromethoxy)phenyl)pyridin-2(1H)-one] | 895 | 2.20 fold |
| CN(c1nnc(-c2ccc(-c3ccn(C)c(=O)c3)cc2O)s1)C1CC(C)(C)NC(C)(C)C1 [Example 18, 4-(3-Hydroxy-4-(5-(methyl(2,2,6,6-tetramethyl-piperidin-4-yl)amino)-1,3,4-thiadiazol-2-yl)phenyl)-1-methylpyridin-2(1H)-one] | 61 | 3.36 fold |
| CN(c1nnc(-c2ccc(-c3ccc(=O)n(C)c3)cc2O)s1)C1CC(C)(C)NC(C)(C)C1 [Example 17, 5-(3-Hydroxy-4-(5-(methyl(2,2,6,6-tetramethyl-piperidin-4-yl)amino)-1,3,4-thiadiazol-2-yl)phenyl)-1-methylpyridin-2(1H)-one] | 36 | 2.74 fold |
